Test results as given in ChEMBL document CHEMBL6115030, “Systematic All-Hydrocarbon Stapling Analysis for Cecropin A Generates a Potent and Stable Antimicrobial Peptide” (J Med Chem, 2025).
≈ marks a conversion by molar mass, not a printed value. Calls of active or inactive are those of the source. The rule behind the calls is not given here. Bridge positions count the residues as written; N and C are the ends. Square brackets hold non-standard residues; d marks the D form. Peptide text beside a SMILES is read from it. * marks the point of attachment. S5 = C=CCCC[C@](C)(N)C(=O)O; X1 = CC[C@H](C)CCCCC(=O)*; dDab = NCC[C@@H](N)C(=O)O; Dab = NCC[C@H](N)C(=O)O

Legend:
Staphylococcus aureus = assay: Antibacterial activity against Staphylococcus aureus ATCC 25923 assessed as inhibition of bacterial growth measured after 24 hrs by broth microdilution method; type: functional
Klebsiella pneumoniae [1] = assay: Antibacterial activity against Klebsiella pneumoniae ATCC 13883 assessed as inhibition of bacterial growth measured after 24 hrs by broth microdilution method; type: functional
Pseudomonas aeruginosa [2] = assay: Antibacterial activity against Pseudomonas aeruginosa PAO1 assessed as inhibition of bacterial growth measured after 24 hrs by broth microdilution method; type: functional
Acinetobacter baumannii = assay: Antibacterial activity against Pandrug-resistant Acinetobacter baumannii assessed as inhibition of bacterial growth measured after 24 hrs by broth microdilution method; type: functional
Klebsiella pneumoniae [3] = assay: Antibacterial activity against Carbapenem-resistant Klebsiella pneumoniae assessed as inhibition of bacterial growth measured after 24 hrs by broth microdilution method; type: functional
Pseudomonas aeruginosa [4] = assay: Antibacterial activity against Carbapenem-resistant Pseudomonas aeruginosa assessed as inhibition of bacterial growth measured after 24 hrs by broth microdilution method; type: functional
Pseudomonas aeruginosa [5] = assay: Antibacterial activity against Pandrug-resistant Pseudomonas aeruginosa assessed as inhibition of bacterial growth measured after 24 hrs by broth microdilution method; type: functional
Salmonella typhimurium = assay: Antibacterial activity against Salmonella typhimurium assessed as inhibition of bacterial growth measured after 24 hrs by broth microdilution method; type: functional, Salmonella enterica subsp. enterica serovar Typhimurium; details: Salmonella enterica
Shigella flexneri = assay: Antibacterial activity against Shigella flexneri 301 assessed as inhibition of bacterial growth measured after 24 hrs by broth microdilution method; type: functional
Escherichia coli [6] = assay: In vivo antibacterial activity against Escherichia coli intraperitoneally injected into C57BL/6 mouse peritonitis model assessed as reduction in bacterial load in blood at 2.5 mg/kg, ip measured after 48 hrs relative to control; type: functional, organism-based
Escherichia coli [7] = assay: In vivo antibacterial activity against Escherichia coli intraperitoneally injected into C57BL/6 mouse peritonitis model assessed as reduction in bacterial load in liver at 2.5 mg/kg, ip measured after 48 hrs relative to control; type: functional, organism-based
Escherichia coli [8] = assay: In vivo antibacterial activity against Escherichia coli intraperitoneally injected into C57BL/6 mouse peritonitis model assessed as reduction in bacterial load in spleen at 2.5 mg/kg, ip measured after 48 hrs relative to control; type: functional, organism-based
Escherichia coli [9] = assay: In vivo antibacterial activity against Escherichia coli intraperitoneally injected into C57BL/6 mouse peritonitis model assessed as reduction in bacterial load in lung at 2.5 mg/kg, ip measured after 48 hrs relative to control; type: functional, organism-based
Escherichia coli [10] = assay: In vivo antibacterial activity against Escherichia coli intraperitoneally injected into C57BL/6 mouse peritonitis model assessed as reduction in bacterial load in kidney at 2.5 mg/kg, ip measured after 48 hrs relative to control; type: functional, organism-based
Mus musculus [11] = assay: In vivo anti-inflammatory efficacy in Escherichia coli intraperitoneally injected into C57BL/6 mouse peritonitis model assessed as reduction in IL-1beta level in blood at 2.5 mg/kg, ip measured after 48 hrs by ELISA; type: functional, organism-based
Mus musculus [12] = assay: In vivo anti-inflammatory efficacy in Escherichia coli intraperitoneally injected into C57BL/6 mouse peritonitis model assessed as reduction in IL-6 level in blood at 2.5 mg/kg, ip measured after 48 hrs by ELISA; type: functional, organism-based
Mus musculus [13] = assay: In vivo anti-inflammatory efficacy in Escherichia coli intraperitoneally injected into C57BL/6 mouse peritonitis model assessed as reduction in TNF-alpha level in blood at 2.5 mg/kg, ip measured after 48 hrs by ELISA; type: functional, organism-based
[14] = Hemolytic activity in human RBC assessed as hemolysis incubated for 1 hr by microplate reader; type: toxicity, cell-based, Erythrocyte; details: erythrocyte, 1 h

Structure (SMILES)	MIC (Staphylococcus aureus)	MIC (Klebsiella pneumoniae [1])	MIC (Pseudomonas aeruginosa [2])	MIC (Acinetobacter baumannii)	MIC (Klebsiella pneumoniae [3])	MIC (Pseudomonas aeruginosa [4])	MIC (Pseudomonas aeruginosa [5])	MIC (Salmonella typhimurium)	MIC (Shigella flexneri)	Activity (Escherichia coli [6])	Activity (Escherichia coli [7])	Activity (Escherichia coli [8])	Activity (Escherichia coli [9])	Activity (Escherichia coli [10])	Activity (Mus musculus [11])	Activity (Mus musculus [12])	Activity (Mus musculus [13])	Activity [14]
CC[C@H](C)[C@H](NC(=O)CNC(=O)[C@H](CC(=O)O)NC(=O)[C@H](CCCNC(=N)N)NC(=O)[C@@H](NC(=O)[C@H](CC(N)=O)NC(=O)[C@H](CCC(N)=O)NC(=O)CNC(=O)[C@@H](NC(=O)[C@H](CCCCN)NC(=O)[C@H](CCC(=O)O)NC(=O)[C@@H](NC(=O)[C@H](CCCCN)NC(=O)[C@H](CCCCN)NC(=O)[C@H](Cc1ccccc1)NC(=O)[C@H](CC(C)C)NC(=O)[C@H](CCCCN)NC(=O)[C@H](Cc1c[nH]c2ccccc12)NC(=O)[C@H](CCCCN)NC(C)=O)[C@@H](C)CC)C(C)C)[C@@H](C)CC)C(=O)N[C@H](C(=O)N[C@@H](CCCCN)C(=O)N[C@@H](C)C(=O)NCC(=O)N1CCC[C@H]1C(=O)N[C@@H](C)C(=O)N[C@H](C(=O)N[C@@H](C)C(=O)N[C@@]1(C)CCC/C=C\CCC[C@@](C)(C(=O)N[C@H](C(=O)N[C@@H](CCC(N)=O)C(=O)N[C@H](C(=O)N[C@@H](C)C(=O)N[C@@H](CCCCN)C(N)=O)[C@@H](C)CC)[C@@H](C)O)NC(=O)[C@H](CCC(N)=O)NC(=O)CNC(=O)[C@H](C(C)C)NC1=O)C(C)C)[C@@H](C)CC (Ac-KWKLFKKIEKVGQNIRDGIIKAGPAVA[S5]VGQ[S5]TQIAK-NH2; staple (Z) 28-32)	3.13 µM (≈ 12.9 µg/mL)	3.13 µM (≈ 12.9 µg/mL)	6.25 µM (≈ 25.8 µg/mL)	< 0.78 µM	6.25 µM (≈ 25.8 µg/mL)	> 100 µM	25 µM (≈ 103 µg/mL)	6.25 µM (≈ 25.8 µg/mL)	1.56 µM (≈ 6.44 µg/mL)									
CC[C@H](C)[C@H](NC(=O)CNC(=O)[C@H](CC(=O)O)NC(=O)[C@H](CCCNC(=N)N)NC(=O)[C@@H](NC(=O)[C@H](CC(N)=O)NC(=O)[C@H](CCC(N)=O)NC(=O)CNC(=O)[C@@H](NC(=O)[C@H](CCCCN)NC(=O)[C@H](CCC(=O)O)NC(=O)[C@@H](NC(=O)[C@H](CCCCN)NC(=O)[C@H](CCCCN)NC(=O)[C@H](Cc1ccccc1)NC(=O)[C@H](CC(C)C)NC(=O)[C@H](CCCCN)NC(=O)[C@H](Cc1c[nH]c2ccccc12)NC(=O)[C@H](CCCCN)NC(C)=O)[C@@H](C)CC)C(C)C)[C@@H](C)CC)C(=O)N[C@H](C(=O)N[C@@H](CCCCN)C(=O)N[C@@H](C)C(=O)NCC(=O)N1CCC[C@H]1C(=O)N[C@@H](C)C(=O)N[C@H](C(=O)N[C@@H](C)C(=O)N[C@H](C(=O)N[C@H](C(=O)NCC(=O)N[C@@H](CCC(N)=O)C(=O)N[C@@]1(C)CCC/C=C/CCC[C@@](C)(C(=O)N[C@@H](CCCCN)C(N)=O)NC(=O)[C@H]([C@@H](C)CC)NC(=O)[C@H](CCC(N)=O)NC(=O)[C@H]([C@@H](C)O)NC1=O)C(C)C)C(C)C)C(C)C)[C@@H](C)CC (Ac-KWKLFKKIEKVGQNIRDGIIKAGPAVAVVGQ[S5]TQI[S5]K-NH2; staple (E) 32-36)	1.56 µM (≈ 6.48 µg/mL)	3.13 µM (≈ 13 µg/mL)	6.25 µM (≈ 26 µg/mL)	< 0.78 µM	3.13 µM (≈ 13 µg/mL)	> 100 µM	25 µM (≈ 104 µg/mL)	3.13 µM (≈ 13 µg/mL)	< 0.78 µM									
CC(C)CCCCC(=O)N[C@@H](CCN)C(=O)N[C@H](C(=O)N[C@@H](CCN)C(=O)N[C@H]1CCNC(=O)[C@H]([C@@H](C)O)NC(=O)[C@H](CCN)NC(=O)[C@H](CCN)NC(=O)[C@H](CC(C)C)NC(=O)[C@@H](Cc2ccccc2)NC(=O)[C@@H](CCN)NC1=O)[C@@H](C)O.CC[C@H](C)CCCCC(=O)N[C@@H](CCN)C(=O)N[C@H](C(=O)N[C@@H](CCN)C(=O)N[C@H]1CCNC(=O)[C@H]([C@@H](C)O)NC(=O)[C@H](CCN)NC(=O)[C@H](CCN)NC(=O)[C@H](CC(C)C)NC(=O)[C@@H](Cc2ccccc2)NC(=O)[C@@H](CCN)NC1=O)[C@@H](C)O (X1-[Dab]T[Dab][Dab][dDab][dF]L[Dab][Dab]T; lactam 4-C)										Active	Active	Active	Active	Active	Active	Active	Active	
CC[C@H](C)[C@H](NC(=O)CNC(=O)[C@H](CC(=O)O)NC(=O)[C@H](CCCNC(=N)N)NC(=O)[C@@H](NC(=O)[C@H](CC(N)=O)NC(=O)[C@H](CCC(N)=O)NC(=O)CNC(=O)[C@@H](NC(=O)[C@H](CCCCN)NC(=O)[C@H](CCC(=O)O)NC(=O)[C@@H](NC(=O)[C@H](CCCCN)NC(=O)[C@H](CCCCN)NC(=O)[C@H](Cc1ccccc1)NC(=O)[C@H](CC(C)C)NC(=O)[C@H](CCCCN)NC(=O)[C@H](Cc1c[nH]c2ccccc12)NC(=O)[C@H](CCCCN)NC(C)=O)[C@@H](C)CC)C(C)C)[C@@H](C)CC)C(=O)N[C@H](C(=O)N[C@@H](CCCCN)C(=O)N[C@@H](C)C(=O)NCC(=O)N1CCC[C@H]1C(=O)N[C@@]1(C)CCC/C=C\CCC[C@@](C)(C(=O)NCC(=O)N[C@@H](CCC(N)=O)C(=O)N[C@@H](C)C(=O)N[C@H](C(=O)N[C@@H](CCC(N)=O)C(=O)N[C@H](C(=O)N[C@@H](C)C(=O)N[C@@H](CCCCN)C(N)=O)[C@@H](C)CC)[C@@H](C)O)NC(=O)[C@H](C(C)C)NC(=O)[C@H](C)NC(=O)[C@H](C(C)C)NC1=O)[C@@H](C)CC (Ac-KWKLFKKIEKVGQNIRDGIIKAGP[S5]VAV[S5]GQATQIAK-NH2; staple (Z) 25-29)	3.13 µM (≈ 12.9 µg/mL)	3.13 µM (≈ 12.9 µg/mL)	6.25 µM (≈ 25.8 µg/mL)	< 0.78 µM	6.25 µM (≈ 25.8 µg/mL)	> 100 µM	25 µM (≈ 103 µg/mL)	3.13 µM (≈ 12.9 µg/mL)	1.56 µM (≈ 6.44 µg/mL)									Non-toxic
CC[C@H](C)[C@H](NC(=O)CNC(=O)[C@H](CC(=O)O)NC(=O)[C@H](CCCNC(=N)N)NC(=O)[C@@H](NC(=O)[C@H](CC(N)=O)NC(=O)[C@H](CCC(N)=O)NC(=O)CNC(=O)[C@@H](NC(=O)[C@H](CCCCN)NC(=O)[C@H](CCC(=O)O)NC(=O)[C@@H](NC(=O)[C@H](CCCCN)NC(=O)[C@H](CCCCN)NC(=O)[C@H](Cc1ccccc1)NC(=O)[C@H](CC(C)C)NC(=O)[C@H](CCCCN)NC(=O)[C@H](Cc1c[nH]c2ccccc12)NC(=O)[C@H](CCCCN)NC(C)=O)[C@@H](C)CC)C(C)C)[C@@H](C)CC)C(=O)N[C@H](C(=O)N[C@@H](CCCCN)C(=O)N[C@@H](C)C(=O)NCC(=O)N1CCC[C@H]1C(=O)N[C@@H](C)C(=O)N[C@@]1(C)CCC/C=C\CCC[C@@](C)(C(=O)N[C@@H](CCC(N)=O)C(=O)N[C@@H](C)C(=O)N[C@H](C(=O)N[C@@H](CCC(N)=O)C(=O)N[C@H](C(=O)N[C@@H](C)C(=O)N[C@@H](CCCCN)C(N)=O)[C@@H](C)CC)[C@@H](C)O)NC(=O)[C@H](C(C)C)NC(=O)[C@H](C(C)C)NC(=O)[C@H](C)NC1=O)[C@@H](C)CC (Ac-KWKLFKKIEKVGQNIRDGIIKAGPA[S5]AVV[S5]QATQIAK-NH2; staple (Z) 26-30)	3.13 µM (≈ 13 µg/mL)	3.13 µM (≈ 13 µg/mL)	6.25 µM (≈ 25.9 µg/mL)	< 0.78 µM	12.5 µM (≈ 51.8 µg/mL)	> 100 µM	25 µM (≈ 104 µg/mL)	6.25 µM (≈ 25.9 µg/mL)	1.56 µM (≈ 6.46 µg/mL)									Non-toxic
CC[C@H](C)[C@H](NC(=O)CNC(=O)[C@H](CC(=O)O)NC(=O)[C@H](CCCNC(=N)N)NC(=O)[C@@H](NC(=O)[C@H](CC(N)=O)NC(=O)[C@H](CCC(N)=O)NC(=O)CNC(=O)[C@@H](NC(=O)[C@H](CCCCN)NC(=O)[C@H](CCC(=O)O)NC(=O)[C@@H](NC(=O)[C@H](CCCCN)NC(=O)[C@H](CCCCN)NC(=O)[C@H](Cc1ccccc1)NC(=O)[C@H](CC(C)C)NC(=O)[C@H](CCCCN)NC(=O)[C@H](Cc1c[nH]c2ccccc12)NC(=O)[C@H](CCCCN)NC(C)=O)[C@@H](C)CC)C(C)C)[C@@H](C)CC)C(=O)N[C@H](C(=O)N[C@@H](CCCCN)C(=O)N[C@@H](C)C(=O)NCC(=O)N1CCC[C@H]1C(=O)N[C@@H](C)C(=O)N[C@H](C(=O)N[C@@H](C)C(=O)N[C@H](C(=O)N[C@@]1(C)CCC/C=C\CCC[C@@](C)(C(=O)N[C@@H](CCC(N)=O)C(=O)N[C@H](C(=O)N[C@@H](C)C(=O)N[C@@H](CCCCN)C(N)=O)[C@@H](C)CC)NC(=O)[C@H](C)NC(=O)[C@H](CCC(N)=O)NC(=O)CNC1=O)C(C)C)C(C)C)[C@@H](C)CC (Ac-KWKLFKKIEKVGQNIRDGIIKAGPAVAV[S5]GQA[S5]QIAK-NH2; staple (Z) 29-33)	1.56 µM (≈ 6.39 µg/mL)	1.56 µM (≈ 6.39 µg/mL)	6.25 µM (≈ 25.6 µg/mL)	< 0.78 µM	3.13 µM (≈ 12.8 µg/mL)	> 100 µM	25 µM (≈ 102 µg/mL)	1.5 µM (≈ 6.14 µg/mL)	< 0.78 µM									
